Assay results published in the supplement of paper PMC11061612.

Assays:
[1] = compound: C=CCn1c(=O)c2cnc(Nc3ccc(N4CCN(C)CC4)cc3)nc2n1-c1cccc(C(C)(C)O)n1 [AZD1775]; conditions: max 3 µM
In short: (§1)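 In 1536-well plates, cancer cell lines in 7.5 μl DMEM/F12 or RPMI with 10% FBS spent 24 hours at 37°C and 5% CO2 and were then dosed for 72 hours with final DMSO typically 0.2%. Viability was read by CellTiter-Glo 2.0 luminescence and scaled between blank-well and DMSO-well means. The single-agent IC50 was fitted from dose responses using a logistic curve in a non-linear mixed effects model, and that logistic curve had two parameters.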

[2] = compound: C[C@@H](Nc1cc(F)cc(F)c1)c1cc(C(=O)N(C)C)cc2c(=O)cc(N3CCOCC3)oc12 [AZD8186]; conditions: max 10 µM
In short: as §1

[3] = compound: C[C@@H]1COCCN1C2=NC(=NC(=C2)C3(CC3)[S@](=N)(=O)C)C4=C5C=CNC5=NC=C4 [AZD6738]; conditions: max 10 µM
In short: as §1

[4] = compound: Cn1cnc2c(F)c(Nc3ccc(Br)cc3Cl)c(C(=O)NOCCO)cc21 [Selumetinib]; conditions: max 10 µM
In short: as §1

[5] = compound: CC(=O)O[C@H]1C(=O)[C@@]2(C)[C@H]([C@H](OC(=O)c3ccccc3)[C@]3(O)C[C@H](OC(=O)[C@H](O)[C@@H](NC(=O)c4ccccc4)c4ccccc4)C(C)=C1C3(C)C)[C@]1(OC(C)=O)CO[C@@H]1C[C@@H]2O [Paclitaxel]; conditions: max 3 µM
In short: as §1

[6] = compound: C[C@@H](c1ccc2nccn2c1)n1nnc2ncc(-c3cnn(C)c3)nc21 [Savolitinib]; conditions: max 1 µM
In short: as §1

[7] = compound: CN(C)CCCOc1ccc(-c2ccc3ncc4c(c3c2)n(C2CCOCC2)c(=O)n4C)cn1 [AZD0156]; conditions: max 3 µM
In short: as §1

[8] = compound: CC1(C)CCC(CN2CCN(c3ccc(C(=O)NS(=O)(=O)c4ccc(NCC5CCOCC5)c([N+](=O)[O-])c4)c(Oc4cnc5[nH]ccc5c4)c3)CC2)=C(c2ccc(Cl)cc2)C1 [Venetoclax]; conditions: max 1 µM
In short: as §1

[9] = compound: C1CC(C1)(C(=O)[O-])C(=O)[O-].N.N.[Pt+2] [Carboplatin]; conditions: max 10 µM
In short: as §1

[10] = compound: Cc1cc2ncnn2cc1Nc1ncc2c(n1)n(C1CCOCC1)c(=O)n2C [AZD7648]; conditions: max 10 µM
In short: as §1

[11] = compound: Cc1c2c(nn1C)CSCc1cc(n(C)n1)CSc1cc(c3ccccc3c1)OCCCc1c(C(=O)O)n(C)c3c-2c(Cl)ccc13 [AZD5991]; conditions: max 1 µM
In short: as §1

[12] = compound: C[C@@H](Oc1cc(-c2cnn(C3CCNCC3)c2)cnc1N)c1c(Cl)ccc(F)c1Cl [Crizotinib]; conditions: max 10 µM
In short: as §1

[13] = compound: CCc1c2c(nc3ccc(O)cc13)-c1cc3c(c(=O)n1C2)COC(=O)[C@]3(O)CC [SN-38]; conditions: max 0.3 µM
In short: as §1

[14] = compound: CC(=O)c1c(C)c2cnc(Nc3ccc(N4CCNCC4)cn3)nc2n(C2CCCC2)c1=O [Palbociclib]; conditions: max 10 µM
In short: as §1

[15] = compound: O=C(c1cc(Cc2n[nH]c(=O)c3ccccc23)ccc1F)N1CCN(C(=O)C2CC2)CC1 [Olaparib]; conditions: max 10 µM
In short: as §1

[16] = compound: COc1cc(Nc2ncc3c(n2)-c2ccc(Cl)cc2C(c2c(F)cccc2OC)=NC3)ccc1C(=O)O [Alisertib]; conditions: max 10 µM
In short: as §1

[17] = compound: CC1=C(C(=CC=C1)Cl)NC(=O)C2=CN=C(S2)NC3=CC(=NC(=N3)C)N4CCN(CC4)CCO [Dasatinib]; conditions: max 2 µM
In short: as §1

[18] = compound: COc1cc2ncnc(Nc3ccc(F)c(Cl)c3)c2cc1OCCCN1CCOCC1 [Gefitinib]; conditions: max 10 µM
In short: as §1

[19] = compound: Cc1nc(-c2cn3c(n2)-c2ccc(-c4cnn(C(C)(C)C(N)=O)c4)cc2OCC3)n(C(C)C)n1 [Taselisib]; conditions: max 10 µM
In short: as §1

[20] = compound: COc1nnc2ccc(N3CCC(c4ccc(OCCN5CCN(C)C(=O)[C@H]5C)cc4)CC3)nn12 [AZD5153]; conditions: max 1 µM
In short: as §1

[21] = compound: CCN(CCO)CCCOc1ccc2c(Nc3cc(CC(=O)Nc4cccc(F)c4)[nH]n3)ncnc2c1 [AZD2811]; conditions: max 1 µM
In short: as §1

[22] = compound: CS(=O)(=O)CCNCc1ccc(-c2ccc3ncnc(Nc4ccc(OCc5cccc(F)c5)c(Cl)c4)c3c2)o1 [Lapatinib]; conditions: max 10 µM
In short: as §1

[23] = compound: COc1cccc(OCCCN)c1-c1cc(Nc2cnc(C#N)cn2)n[nH]1 [Prexasertib]; conditions: max 1 µM
In short: as §1

[24] = compound: COc1cccc2c1C(=O)c1c(O)c3c(c(O)c1C2=O)C[C@@](O)(C(=O)CO)C[C@@H]3O[C@H]1C[C@H](N)[C@H](O)[C@H](C)O1 [Doxorubicin]; conditions: max 1 µM
In short: as §1

[25] = compound: CC(C)n1c(=O)n(C)c2cnc3cc(F)c(-c4ccc(OCCCN5CCCCC5)nc4)cc3c21 [AZD1390]; conditions: max 0.3 µM
In short: as §1

[26] = compound: CC1=CN2[C@@H](C1)C=NC3=CC(=C(C=C3C2=O)OC)OCCCCCOC4=C(C=C5C(=C4)N=C[C@@H]6CC(=CN6C5=O)C)OC [SG3199]; conditions: max 0.001 µM
In short: as §1

[27] = compound: N#Cc1cnc(Nc2cc(NC[C@H]3CNCCO3)c(C(F)(F)F)cn2)cn1 [SRA737]; conditions: max 10 µM
In short: as §1

[28] = compound: C1CN(CCC1(C(=O)N[C@@H](CCO)C2=CC=C(C=C2)Cl)N)C3=NC=NC4=C3C=CN4 [AZD5363]; conditions: max 10 µM
In short: as §1

[29] = compound: COc1cc([C@@H]2c3cc4c(cc3[C@@H](O[C@@H]3O[C@@H]5CO[C@@H](C)O[C@H]5[C@H](O)[C@H]3O)[C@H]3COC(=O)[C@H]23)OCO4)cc(OC)c1O [Etoposide]; conditions: max 10 µM
In short: as §1

[30] = compound: Nc1ccn([C@@H]2O[C@H](CO)[C@@H](O)C2(F)F)c(=O)n1 [Gemcitabine]; conditions: max 0.3 µM
In short: as §1

[31] = compound: O=C(Nc1ccc2[nH]nc(-c3ccncc3)c2c1)[C@@H]1CCN(CC(=O)N2CCN(c3ccc(-c4ncccn4)cc3)CC2)C1; conditions: max 5 µM
In short: as §1

[32] = compound: CN(CC[C@H](CSC1=CC=CC=C1)NC2=C(C=C(C=C2)S(=O)(=O)NC(=O)C3=CC=C(C=C3)N4CCC(CC4)[C@H](C5=CC=CC=C5C6=CC=C(C=C6)Cl)O)S(=O)(=O)C(F)(F)F)CCO [AZD4320]; conditions: max 1 µM
In short: as §1

[33] = compound: O=c1[nH]cc(F)c(=O)[nH]1 [5-Fluorouracil]; conditions: max 20 µM
In short: as §1

[34] = compound: NC1(c2ccc(-c3nc4ccn5c(=O)[nH]nc5c4cc3-c3ccccc3)cc2)CCC1 [MK-2206]; conditions: max 10 µM
In short: as §1

[35] = compound: CC(=O)Nc1cccc(-n2c(=O)n(C3CC3)c(=O)c3c(Nc4ccc(I)cc4F)n(C)c(=O)c(C)c32)c1 [Trametinib]; conditions: max 1 µM
In short: as §1

| Cell Line | IC50, cell viability 72 h [1] | IC50, cell viability 72 h [2] | IC50, cell viability 72 h [3] | IC50, cell viability 72 h [4] | IC50, cell viability 72 h [5] | IC50, cell viability 72 h [6] | IC50, cell viability 72 h [7] | IC50, cell viability 72 h [8] | IC50, cell viability 72 h [9] | IC50, cell viability 72 h [10] | IC50, cell viability 72 h [11] | IC50, cell viability 72 h [12] | IC50, cell viability 72 h [13] | IC50, cell viability 72 h [14] | IC50, cell viability 72 h [15] | IC50, cell viability 72 h [16] | IC50, cell viability 72 h [17] | IC50, cell viability 72 h [18] | IC50, cell viability 72 h [19] | IC50, cell viability 72 h [20] | IC50, cell viability 72 h [21] | IC50, cell viability 72 h [22] | IC50, cell viability 72 h [23] | IC50, cell viability 72 h [24] | IC50, cell viability 72 h [25] | IC50, cell viability 72 h [26] | IC50, cell viability 72 h [27] | IC50, cell viability 72 h [28] | IC50, cell viability 72 h [29] | IC50, cell viability 72 h [30] | IC50, cell viability 72 h [31] | IC50, cell viability 72 h [32] | IC50, cell viability 72 h [33] | IC50, cell viability 72 h [34] | IC50, cell viability 72 h [35] |
| --- | --- | --- | --- | --- | --- | --- | --- | --- | --- | --- | --- | --- | --- | --- | --- | --- | --- | --- | --- | --- | --- | --- | --- | --- | --- | --- | --- | --- | --- | --- | --- | --- | --- | --- | --- |
| HCC-78 (Lung Adenocarcinoma) | 1380 nM | > 10000 nM | > 10000 nM | > 10000 nM | > 3000 nM | > 1000 nM | > 3000 nM | > 1000 nM | > 10000 nM | > 10000 nM | > 1000 nM | 9580 nM | 7.04 nM | > 10000 nM | > 10000 nM | > 10000 nM | > 2000 nM | > 10000 nM | 5890 nM | > 1000 nM | > 1000 nM | > 10000 nM | 99.6 nM | 493 nM | > 300 nM | > 1 nM | > 10000 nM | > 10000 nM | 2350 nM | 32.7 nM | > 5000 nM | > 1000 nM | > 20000 nM | > 10000 nM | > 1000 nM |
| HO-1-N-1 (Oral Cavity Carcinoma) | 1520 nM | > 10000 nM | 5590 nM | > 10000 nM | < 3 nM | > 1000 nM | > 3000 nM | > 1000 nM | > 10000 nM | > 10000 nM | 788 nM | 5580 nM | 4.4 nM | > 10000 nM | > 10000 nM | 68.7 nM | 581 nM | 8370 nM | 1960 nM | 202 nM | 409 nM | 7300 nM | 60.1 nM | 84.2 nM | > 300 nM | > 1 nM | > 10000 nM | > 10000 nM | 1260 nM | 6.22 nM | 2260 nM | > 1000 nM | 17600 nM | > 10000 nM | 417 nM |
